Data on twelve molecules can be found in patent US5659049A, “Antioxidant, antiphospholipase derivatives of ricinoleic acid” (Virginia Commonwealth University, priority 1995, dated 1997).

Structures can show the parent of a compound that is named as a salt. Bounds are passed on as bounds.

The nature of assay [1]: Oxidation of arachidonic acid (decreased turbidity and hydroperoxide formation).
For the next assay, the system named is PLA2. As to the kind of experiment: Anti-PLA2 activity (comparative Table 6). The format is biochemical. Conditions: nd = not detectable at ≤ 500 uM; read-out: IC-50 Anti-PLA2 Activity.
Assay [2] can be described thus: Anti-oxidant activity (comparative Table 6). Conditions: read-out: IC-50 Anti-Oxidant Activity; nd = not detectable at ≤ 500 uM.
Assay [3] in a line: Auto-oxidation of phosphatidylethanolamine. The format is biochemical. Conditions: for % Oxidized PE / % Unoxidized PE: 24 hrs; for % Oxidized PE: PE alone 39.3%; for % Unoxidized PE: PE alone 51.1%.
In the next assay the target is T1, human synovial PLA2 (Homo sapiens, UniProt P14555).
T1 construct: from tissue; host or cells: human synovial (fluid)
T1 sequence (P14555 21-144): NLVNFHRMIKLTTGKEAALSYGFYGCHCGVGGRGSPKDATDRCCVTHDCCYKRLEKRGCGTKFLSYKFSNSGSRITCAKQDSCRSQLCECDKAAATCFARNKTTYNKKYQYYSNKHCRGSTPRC
Kind of assay: Inhibition of human synovial PLA2 activity in vitro. The format is biochemical. Conditions: for IC50: each compound prepared as a sodium salt, FIG. 9, approximately. From the text: FIG. 9 is a graph illustrating the ability of the compounds of the invention to inhibit PLA2 activity in vitro.

For assay [4], the target named is T2, human synovial fluid PLA2 (SF-PLA2) (Homo sapiens, UniProt P14555).
T2 construct: intra-articular injection of human synovial fluid PLA2 (SF-PLA2) into the mouse paw; from tissue; host or cells: human synovial fluid
T2 sequence (P14555 21-144): T1 sequence (P14555 21-144)
Kind of assay: Human SF-PLA2 induced mouse paw edema, oral administration. The format is in vivo. Conditions: for % Increase Weight: control 61%. The method, then:
The mouse paw edema is inhibited in dose related fashion by increasing concentrations of RISE-1 given orally 1.0 hours before induction of the edema by SF-PLA2.

For assay [5], the system named is rat adjuvant induced arthritis. As to the kind of experiment: Rat adjuvant induced arthritis. Conditions: in vivo.
A further assay deals with T3, human plasma PLA2 (Homo sapiens, UniProt P14555).
T3 construct: from tissue; host or cells: human plasma
T3 sequence (P14555 21-144): T1 sequence (P14555 21-144)
As to the kind of experiment: In vitro inhibition of PLA2 derived from plasma (FIG. 8). The format is biochemical.

Another assay relates to sperm PLA2. Kind of assay: In vitro inhibition of PLA2 derived from sperm (FIG. 8). The format is biochemical, human.
Another assay deals with T4, platelet PLA2 (Homo sapiens, UniProt P14555).
T4 construct: from tissue; host or cells: platelets
T4 sequence (P14555 21-144): T1 sequence (P14555 21-144)
Kind of assay: In vitro inhibition of PLA2 derived from platelets (FIG. 8). The format is biochemical.

Assay [6] relates to human polymorphonuclear leukocytes (PMNs). Kind of assay: Inhibition of arachidonic acid release from prelabelled human PMNs. Conditions: Leukocyte, read-out: % Inhibition of arachidonic acid release.
[7] abbreviates: RISE-1 10 mg/kg orally 1.0 hours before SF-PLA2.
[8] abbreviates: RISE-1 30 mg/kg orally 1.0 hours before SF-PLA2.
Where [9] appears, read: RISE-1 100 mg/kg orally 1.0 hours before SF-PLA2.

Take `Cc1cc(C(C)(C)C)c(O)c(C(C)(C)C)c1` [BHT, betahydroxytoluene, reference compound]: the “Turbidity (430 nm)” value in [1] (100 uM, time 0 hrs, control 1.38) was 1.31; in [1] (100 uM, time 24 hrs, control .387) it was 1.283. Also, the Hydroperoxide turned out to be 119 nmols in assay [1] (100 uM, time 0 hrs, control 100) and 112 nmols in assay [1] (100 uM, time 24 hrs, control 378).

For the molecule `CCCCCCC(C/C=C\CCCCCCCC(=O)O)OC(=O)/C=C/C(=O)O` (centres unmarked) [PX-2], the IC50 (in the assay with PLA2; in assay [2]) was more than 500 µM throughout.

On to `CCCCCCCC/C=C\CCCCCCCC(=O)OC(C/C=C\CCCCCCCC(=O)O)CCCCCC` (centres unmarked) [PX-3, Ricinoleic Acid Oleic Acid Ester], for which the “Percent Protection” value is 16% in assay [3] (25 μM); 16% in assay [3] (50 μM); 13% in assay [3] (100 μM); 22% in [3] (250 μM); 27% in assay [3] (500 μM). Besides, the IC50 at human synovial PLA2 is 5 to 10 µM; with PLA2, 7.2 µM; in [2] it was more than 500 µM.

Regarding `CCCCC/C=C\C/C=C\CCCCCCCC(=O)OC(C/C=C\CCCCCCCC(=O)O)CCCCCC` (centres unmarked) [PX-4, Ricinoleic Acid Linoleic Acid Ester], the “Percent Protection” value in assay [3] (25 μM) is 13%; in assay [3] (50 μM) it was 22%; in [3] (100 μM) it was 38%; in assay [3] (250 μM) it was 53%; in assay [3] (500 μM), 73%. The IC50 was 5 to 10 µM at human synovial PLA2, 10 µM with PLA2 and 210 µM in [2].

For the molecule `CCCCCCCC/C=C\CCCCCCCCOC(=O)CCCCCCC/C=C\CC(CCCCCC)OC(=O)/C=C/C(=O)O` (centres unmarked) [PX-5, Oleyl Alcohol-Ricinoleate-Fumaric Acid Diester], the “Percent Protection” value in [3] (25 μM) was determined as 28%; in assay [3] (50 μM) it was 24%; in [3] (100 μM) it was 31%; in assay [3] (250 μM) it was 47%; in assay [3] (500 μM) it was 62%. Further, the IC50 at human synovial PLA2 is 5 to 10 µM; with PLA2, 5 µM; in [2], 300 µM.

As to `CCCCCCC(O)C/C=C\CCCCCCCC(=O)OC(C/C=C\CCCCCCCC(=O)O)CCCCCC` (centres unmarked) [PX-6], the IC50 was 4.5 µM with PLA2 and 300 µM in assay [2].

Consider `CCCCCCC(C/C=C\CCCCCCCC(=O)O)OC(=O)/C=C/C(=O)OC(C/C=C\CCCCCCCC(=O)O)CCCCCC` (centres unmarked) [PX-7, Diricinoleic Acid Fumarate Diester], for which the IC50 in the assay with PLA2 is 7 µM; in assay [2], 130 µM.

For `CCCCCCCC/C=C\CCCCCCCCOC(=O)CCCCCCC/C=C\CC(CCCCCC)OC(=O)/C=C\C(=O)O` (centres unmarked) [PX-8], the IC50 was 3.5 µM in the assay with PLA2 and 140 µM in [2].

As to `CCCCCCCC/C=C\CCCCCCCC(=O)OCC(COC(=O)CCCCCCC/C=C\CCCCCCCC)(COC(=O)CCCCCCC/C=C\CCCCCCCC)NCCS(=O)(=O)O` [PX-13, TES Triolears], the ED50 in assay [4] (mouse, po, administered single dose orally, read-out: IC50 vs PLA2 induced mouse paw edema) was approximately 15 mg/kg.

With `CCCCC/C=C\C/C=C\CCCCCCCC(=O)OCC(N)(COC(=O)CCCCCCC/C=C\C/C=C\CCCCC)COC(=O)CCCCCCC/C=C\C/C=C\CCCCC` [PX-14], the IC50 in the assay with PLA2 was determined as 4.4 µM; in assay [2], 70 µM.

For the molecule `CCCCC/C=C\C/C=C\CCCCCCCC(=O)OCC1(COC(=O)CCCCCCC/C=C\C/C=C\CCCCC)COC(=O)CN1C(=O)CCCCCCC/C=C\C/C=C\CCCCC` [PX-15], the IC50 in assay [2] was more than 500 µM.

With `CCCCCCC(C/C=C\CCCCCCCC(=O)O)OC(=O)CCCCCCCCC(=O)O` (centres unmarked) [RISE-1, Ricinoleic Acid Sebacyl Ester], the “% Protection” value in [4] (setting [7]) was 23%; in assay [4] (setting [8]), 38%; in assay [4] (setting [9]), 49%. The “% Increase Weight” value was 47% in [4] (setting [7]), 38% in assay [4] (setting [8]) and 31% in assay [4] (setting [9]). Moreover, the “% Oxidized PE” value in assay [3] (25 uM) came out at 42.0%; in assay [3] (100 uM), 42.4%. The “% Unoxidized PE” value is reported as 50.6% in assay [3] (25 uM) and 49.6% in [3] (100 uM). The “Inhibition of PLA2 derived from human synovial fluid” value at human synovial PLA2 (FIG. 8) is “dose related, selective in vitro inhibition”. Also, the IC50 at human synovial PLA2 lay within 5 to 10 µM. Besides, in [5], the “Inhibition of rat adjuvant induced arthritis” value is on record as “does not inhibit”. The “Inhibition of PLA2 derived from plasma” value on human plasma PLA2 is reported as “dose related, selective in vitro inhibition”. Besides, the “Inhibition of PLA2 derived from sperm” value with sperm PLA2 is “dose related, selective in vitro inhibition”. The “Inhibition of PLA2 derived from platelets” value on platelet PLA2 is on record as “dose related, selective in vitro inhibition”. Besides, in assay [6], the inhibition at 25 µM was 0%. The inhibition at 50 µM in assay [6] turned out to be 19%. Moreover, the inhibition at 75 µM in assay [6] was found to be 38%. In addition, the inhibition at 100 µM in [6] came to 72%. Moreover, the “Turbidity (430 nm)” value in [1] (25 uM, time 0 hrs, control 1.38) is reported as 1.33; in assay [1] (25 uM, time 24 hrs, control .387), “.524”; in assay [1] (50 uM, time 0 hrs, control 1.38) it was 1.47; in assay [1] (50 uM, time 24 hrs, control .387), “.348”. Further, the Hydroperoxide in assay [1] (25 uM, time 0 hrs, control 100) came out at 109 nmols; in assay [1] (25 uM, time 24 hrs, control 378), 437 nmols; in assay [1] (50 uM, time 0 hrs, control 100), 109 nmols; in assay [1] (50 uM, time 24 hrs, control 378), 428 nmols.
